The results in this text go back to US20230167127A1, “COMPOUNDS AND THEIR USE IN THE TREATMENT OF BACTERIAL INFECTION” (Hoffmann-La Roche Inc., priority 2020, published 2023).

The test has as its system Escherichia coli ATCC 25922. As to the kind of experiment: 50% growth inhibitory concentration (IC50) determination, Iso-Sensitest broth dilution. The test is classed as cell-based. Particulars: strain Escherichia coli ATCC 25922, 10-point broth dilution, optical density at 600 nm over 16 h, read-out: Escherichia coli growth inhibition IC50. In a few lines: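 Growth was tracked as optical density at 600 nm every 20 minutes for 16 h at 35±2° C. Compounds from DMSO stocks were serially diluted twofold over 10 points (e.g. 50–0.097 μM final) in Iso-Sensitest broth. Inhibition computed in log-phase growth to give IC50.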
In general terms: Dilution methods test growth across graded concentrations, often in twofold steps.

[1] abbreviates: Escherichia coli, ATCC25922, 16 h.

Like-named read-outs stand apart in the source and are kept apart here. Bounds are passed on as bounds.

As usually defined, the IC50 is the concentration that gives 50% inhibition. With `Cn1cc(COc2cc(C#N)c3c(c2)CC(CNCCC2CN(c4cnc5c(n4)NC(=O)CO5)C(=O)O2)C3)cn1` (centres unmarked) [Example 390, 6-[(1-methylpyrazol-4-yl)methoxy]-2-[[2-[2-oxo-3-(3-oxo-4H-pyrazino[2,3-b][1,4]oxazin-6-yl)-1,3-oxazolidin-5-yl]ethylamino]methyl]-2,3-dihydro-1H-indene-4-carbonitrile], the IC50 under setting [1] amounted to 161 nM.
With `Cc1nccc2c1CC(CNCCC1CN(c3cnc4c(n3)NC(=O)CO4)C(=O)O1)C2` (centres unmarked) [Example 279, 6-[5-[2-[(1-methyl-6,7-dihydro-5H-cyclopenta[c]pyridin-6-yl)methylamino]ethyl]-2-oxo-1,3-oxazolidin-3-yl]-4H-pyrazino [2,3-b][1,4]oxazin-3-one; formic acid], under setting [1], the IC50 is less than 97.7 nM.
Turning to `O=C1COc2ccc(N3CC(CCNCC4Cc5cccc(Cl)c5C4)OC3=O)nc2N1` (single isomer, unassigned; isomer b) [Example 7, 6-[5-[2-[(4-chloro-2,3-dihydro-1H-inden-2-yl)methylamino]ethyl]-2-oxo-1,3-oxazolidin-3-yl]-4H-pyrido[3,2-b][1,4]oxazin-3-one, Isomer B; formic acid], the concentration for half-maximal inhibition (IC50) was less than 97.7 nM.
Take `Cc1ncc(F)c2c1C[C@H](CNCC[C@H]1CN(c3cnc4c(n3)NC(=O)CO4)C(=O)O1)C2` [Example 429]: under setting [1], the IC50 is less than 97.7 nM.
For the compound `CC(C)(N)COc1cc(C#N)c2c(c1)CC(CN1CCC3(CC1)CN(c1cnc4c(n1)NC(=O)CO4)C(=O)O3)C2` (centres unmarked) [Example 407, 6-(2-amino-2-methylpropoxy)-2-[[2-oxo-3-(3-oxo-4H-pyrazino[2,3-b][1,4]oxazin-6-yl)-1-oxa-3,8-diazaspiro[4.5]decan-8-yl]methyl]-2,3-dihydro-1H-indene-4-carbonitrile], the 50% inhibitory concentration (IC50) under setting [1] was less than 97.7 nM.
Consider “2-[[2-[2-oxo-3-(3-oxo-4H-pyrazino[2,3-b][1,4]oxazin-6-yl)-1,3-oxazolidin-5-yl]ethylamino]methyl]-6-(1H-triazol-5-ylmethoxy)-2,3-dihydro-1H-indene-4-carbonitrile [Example 426]”, for which the 50% inhibitory concentration (IC50) was 156 nM.
Turning to `N#Cc1cccc2c1CC(N[C@H]1C[C@H](C3CN(c4ccc5c(n4)NC(=O)CO5)C(=O)O3)C1)C2` (stereo partly drawn) [Example 14, 2-[[trans-3-[2-oxo-3-(3-oxo-4H-pyrido[3,2-b][1,4]oxazin-6-yl)-1,3-oxazolidin-5-yl]cyclobutyl]amino]-2,3-dihydro-1H-indene-4-carbonitrile], under setting [1], the half-inhibitory concentration (IC50) was 415 nM.
With `O=C1COc2ccc(N3CC([C@H]4C[C@@H](NC5Cc6cccc(Cl)c6C5)C4)OC3=O)nc2N1` (stereo partly drawn) [Example 16, 6-[5-[cis-3-[(4-chloro-2,3-dihydro-1H-inden-2-yl)amino]cyclobutyl]-2-oxo-1,3-oxazolidin-3-yl]-4H-pyrido[3,2-b][1,4]oxazin-3-one; formic acid], under setting [1], the IC50 was determined as 840 nM.
For the compound `CC(C)(O)COc1cc(F)c2c(c1)CC(CNCCC1CN(c3cnc4c(n3)NC(=O)CO4)C(=O)O1)C2` (centres unmarked) [Example 292, 6-[5-[2-[[4-fluoro-6-(2-hydroxy-2-methylpropoxy)-2,3-dihydro-1H-inden-2-yl]methylamino]ethyl]-2-oxo-1,3-oxazolidin-3-yl]-4H-pyrazino[2,3-b][1,4]oxazin-3-one], the IC50 under setting [1] was determined as 403 nM.
The same measure, in the same setting: to `N#Cc1cccc2c1CC(CN[C@H]1C[C@]3(CN(c4ccc5c(n4)NC(=O)CO5)C(=O)O3)C1)C2` (stereo partly drawn) [Example 183, 2-[[[2,4-cis-6-oxo-7-(3-oxo-4H-pyrido[3,2-b][1,4]oxazin-6-yl)-5-oxa-7-azaspiro[3.4]octan-2-yl]amino]methyl]-2,3-dihydro-1H-indene-4-carbonitrile] belongs 153 nM.
On the same count and under the same terms, to `N#Cc1c(OCCN)ccc2c1CC(CNCCC1CN(c3ccc4c(n3)NC(=O)CO4)C(=O)O1)C2` (centres unmarked) [Example 128, 5-(2-aminoethoxy)-2-[[2-[2-oxo-3-(3-oxo-4H-pyrido[3,2-b][1,4]oxazin-6-yl)-1,3-oxazolidin-5-yl]ethylamino]methyl]-2,3-dihydro-1H-indene-4-carbonitrile; formic acid] belongs 98.1 nM.
